Experiments:
Experiment in all cases: microbe, parasite or virus in culture
Format in all cases: cell-based
SARS-CoV-2 variants [1] = conditions: Severe acute respiratory syndrome coronavirus 2, Vero C1008
SARS-CoV-2 variants [2] = conditions: Severe acute respiratory syndrome coronavirus 2, Calu-3
SARS-CoV-2 = conditions: Severe acute respiratory syndrome coronavirus 2; read-out: IC50 values against all viral variants and in all examined cell types

Row | Structure (SMILES) | IC50 (SARS-CoV-2 variants [1]) [nM] | IC90 (SARS-CoV-2 variants [1]) [nM] | IC50 (SARS-CoV-2 variants [2]) [nM] | IC90 (SARS-CoV-2 variants [2]) [nM] | IC50 (SARS-CoV-2) [nM]
1 | NC(=O)c1cn([C@@H]2O[C@H](CO)[C@@H](O)[C@H]2O)c2ncnc(N)c12 [Sangivamycin, sangivamycin] | 42 ± 8.8 | 220 ± 42.1 | 64.3 ± 4.7 | 255 ± 46.1 | 14 to 82
2 | CCC(CC)COC(=O)[C@H](C)N[P@](=O)(OC[C@H]1O[C@@](C#N)(c2ccc3c(N)ncnn23)[C@H](O)[C@@H]1O)Oc1ccccc1 [Remdesivir, remdesivir, reference compound] | 2100 ± 516 | 4450 ± 829 | 2290 ± 449 | 7200 ± 1000 | 
